Among the data in ChEMBL document CHEMBL4725351, “Cyclic Derivative of Host-Defense Peptide IDR-1018 Improves Proteolytic Stability, Suppresses Inflammation, and Enhances In Vivo Activity” (J Med Chem, 2020) are Activity values, retold here.

The subject of test [1] is Staphylococcus aureus. The test is described as follows: Antibiofilm activity against 24 hrs preformed methicillin-resistant Staphylococcus aureus SAP0017 biofilm assessed as reduction in biofilm viability at 7.2 to 30.3 uM by TTC assay relative to control. Format: functional. Conditions: dose microM 7.2-30.3.
Test [2] concerns Staphylococcus aureus. The test is described as follows: Antibiofilm activity against 24 hrs preformed methicillin-resistant Staphylococcus aureus USA300 LAC biofilm assessed as reduction in biofilm viability at 7.2 to 30.3 uM by TTC assay relative to control. The format is functional. The settings on record: dose microM 7.2-30.3.
Test [3] deals with Staphylococcus aureus. In words: Antibiofilm activity against 24 hrs preformed methicillin-resistant Staphylococcus aureus SAP0017 biofilm assessed as reduction in biofilm viability at 100 ug/ml by TTC assay. The format is functional, organism-based. The settings on record: dose 100.0 µg/ml.
In test [4] the test system is Staphylococcus aureus. The test is described as follows: Antibiofilm activity against 24 hrs preformed methicillin-resistant Staphylococcus aureus USA300 LAC biofilm assessed as reduction in biofilm viability at 100 ug/ml by TTC assay. Format: functional, organism-based. The settings on record: dose 100.0 µg/ml.

The source made the active and inactive calls. The rule behind the calls is not given here. Where a SMILES comes first, the peptide text is derived from it. Bridges are numbered along the chain shown (N, C = ends).

In the case of `CC[C@H](C)[C@@H]1NC(=O)[C@H](CCCNC(=N)N)NC(=O)[C@H](C(C)C)NC(=O)[C@H](C)NC(=O)[C@H](C(C)C)NC(=O)[C@H]([C@@H](C)CC)NC(=O)[C@H](CC(C)C)NC(=O)[C@H](CCCNC(=N)N)NC(=O)[C@H](C(C)C)NC(=O)CC[C@@H](C(N)=O)NC(=O)[C@H](CCCNC(=N)N)NC(=O)[C@H](CCCNC(=N)N)NC(=O)[C@H](Cc2c[nH]c3ccccc23)NC1=O` (VRLIVAVRIWRRE-NH2; lactam N-13), the Activity in the test with Staphylococcus aureus [1] and in the test on Staphylococcus aureus [2] was 70% in each case.
On to `CN[C@H](CC(C)C)C(=O)N[C@H]1C(=O)N[C@@H](CC(N)=O)C(=O)N[C@H]2C(=O)N[C@H]3C(=O)N[C@H](C(=O)N[C@H](C(=O)O)c4cc(O)cc(O)c4-c4cc3ccc4O)[C@H](O)c3ccc(c(Cl)c3)Oc3cc2cc(c3O[C@@H]2O[C@H](CO)[C@@H](O)[C@H](O)[C@H]2O[C@H]2C[C@](C)(N)[C@H](O)[C@H](C)O2)Oc2ccc(cc2Cl)[C@H]1O` [VANCOMYCIN], for which the result with Staphylococcus aureus [3] and in the test on Staphylococcus aureus [4] was inactive.
In the case of H-VRLIVAVRIWRR-NH2, the Activity in the test with Staphylococcus aureus [1] and with Staphylococcus aureus [2] was 70% each time.
